Measured values as given in patent US9993462B2, “Hydantoin derivative-containing pharmaceutical composition” (Chugai Seiyaku Kabushiki Kaisha, priority 2014, dated 2018).

Experiments:
[1] = test system: human articular chondrocytes; assay: Proteoglycan synthesis by human articular chondrocytes (35S-sulfate incorporation); format: cell-based; conditions: TGF-β1 10 ng/mL, cultured for 13 days
Description: After purchase of cryopreserved human articular chondrocytes (Lot 2867, Cell Applications Inc.), the cells were thawed in a 37° C. water bath, 15 mL of Basal Medium supplemented with 10% Growth Supplement (Growth Medium, Cell Applications Inc.) was placed in a T75 culture flask (CORNING, Corning Japan K. K.) to culture the cells, and exchanged the next day with 15 mL of Growth Medium; and the cells were cultured for three days. Growth Medium was then removed, and HBSS (Cell Applications Inc.) was used to wash the chondrocyte layer. With addition of 1 mL of trypsin/EDTA solution (Cell Applications Inc.), this was left to stand at room temperature for approximately five minutes, and chondrocytes were detached from the flask. With 10 mL of Neutralization solution (Cell Applications Inc.) added, Bulker-Turk hemocytometer was used to determine the cell count, and the cells were then transferred to a 15-mL test tube for centrifugation (1,200 rpm for five minutes, Tomy Seiko Co., Ltd.) to produce a chondrocyte pellet. The supernatant was discarded, and the cells were placed in a 1.2% sodium alginate solution (25 mmol/L HEPES/150 mmol/L sodium chloride solution, pH7.0) at 2×10^6 cells/mL. This was drawn into a 1-mL syringe (Terumo Corporation) equipped with a 22G injection needle, five drops were added to each well of a 24-well plate (Corning Japan K.K.) containing 2 mL of 102 mmol/L aqueous CaCl2 solution, and this was left to stand for five minutes to form beads. Subsequently, this was washed three times with a 150 mmol/L sodium chloride solution and incubated for one day in Growth Medium, and the medium was exchanged with Basal Medium supplemented with 1% Growth supplement (Cell Applications Inc.). In this procedure, the following factors were added to the medium, and the cells were cultured for 13 days with three times of medium exchange performed per week.
On day 12 of culturing, ^35S-labeled sulfuric acid (PerkinElmer Japan Co., Ltd.) was added at 370 kBq/well, and the medium was collected 24 hours later into a test tube and stored at 4° C. To the alginate gel, a 55 mmol/L sodium citrate solution (Nacalai Tesque, Inc.; 1 mL/well) was added, and this was incubated at 37° C. for ten minutes for solation. This was collected into a microtube (Eppendorf AG) and then centrifuged (1,200 rpm, five minutes) to produce a chondrocyte pellet. […] The glass filter was transferred to a liquid scintillation counter vial, 5 mL of scintillator (Hionic-Fluor, PerkinElmer Japan Co., Ltd.) was added and radioactivity was measured on a liquid scintillation counter (TRI-CARB, PerkinElmer Japan Co., Ltd.).
The remaining 0.1 mL of the digested solution was used for DNA quantification. […]

human PTH1R = biological target: T1, human PTH1R (Homo sapiens, UniProt Q03431); assay: In vitro cAMP signal activity via the human PTH1R (HKRK-B7 cells); format: cell-based; conditions: concentration at 20% cAMP signaling activity, human PTH(1-34) at 100 nM = 100%
T1 construct: expressed in transfected cells; host or cells: HKRK-B7 (LLC-PK1 porcine kidney cells stably expressing human PTH1R)
T1 sequence (Q03431 27-593): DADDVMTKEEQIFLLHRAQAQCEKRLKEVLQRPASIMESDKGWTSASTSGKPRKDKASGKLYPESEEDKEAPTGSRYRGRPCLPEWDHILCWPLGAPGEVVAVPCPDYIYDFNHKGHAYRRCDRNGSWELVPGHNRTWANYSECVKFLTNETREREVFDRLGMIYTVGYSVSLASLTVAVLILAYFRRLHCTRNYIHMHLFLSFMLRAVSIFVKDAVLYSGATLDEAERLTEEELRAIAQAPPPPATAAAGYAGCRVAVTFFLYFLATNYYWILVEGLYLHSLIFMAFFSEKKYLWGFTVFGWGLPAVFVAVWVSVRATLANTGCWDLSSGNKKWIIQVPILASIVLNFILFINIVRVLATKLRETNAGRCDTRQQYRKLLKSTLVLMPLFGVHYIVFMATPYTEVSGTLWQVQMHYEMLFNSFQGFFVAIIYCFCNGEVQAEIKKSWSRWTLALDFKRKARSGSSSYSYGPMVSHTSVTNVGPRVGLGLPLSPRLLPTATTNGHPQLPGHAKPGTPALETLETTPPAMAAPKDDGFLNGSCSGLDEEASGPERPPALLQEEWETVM
Description: Human PTH(1-34) and calcitonin were purchased from Peptide Institute, Inc. (Osaka, Japan), dissolved in 10 mM acetic acid to 1 mM and stored in a −80° C. freezer.
Cells were cultured in Dulbecco's modified Eagle's medium (DMEM) supplemented with 10% fetal bovine serum (Hyclone), 100 units/ml penicillin G and 100 μg/ml streptomycin sulfate (Invitrogen Corp) at 37° C. in a humidified atmosphere containing 5% CO2.
cAMP signal transduction analysis utilized LLC-PK1 cells not expressing the PTH1R, and HKRK-B7 cells, that is, LLC-PK1 cells overexpressing the human PTH1R at 9.5×10^5 receptors/cell (Takasu et al., J. Bone. Miner. Res. 14:11-20, 1999).
HKRK-B7 or LLC-PK1 cells were seeded into a 96-well plate at 1×10^5 cells/well and incubated overnight. On the following day, 50 μl of cAMP assay buffer (DMEM, 2 mM IBMX, 0.2 mg/ml bovine serum albumin, 35 mM Hepes-NaOH, pH 7.4) containing human PTH(1-34) or each compound was added and the plate was placed in a 37° C. incubator. The cells were incubated for 20 minutes. After removing the medium, the cells were washed with 100 μl of cAMP assay buffer once. The plate was placed on dry ice powder to freeze the cells and then removed from the dry ice. The cells were lysed with 40 μl of 50 mM HCl and frozen again on dry ice. The amount of intracellular cAMP produced was measured using a commercially available cAMP EIA kit (Biotrack cAMP EIA system, GE health care).
Analyses were performed using a variable gradient S-shaped dose-response curve equation.

rat hepatocyte = assay: Metabolic stability using rat hepatocyte; format: in vitro ADME
Description: Liver cells were prepared from the liver of rats (SD, female) by a collagenase perfusion method. A compound of the Reference Examples or a Comparative Example was added, and this was incubated at 37° C. for a specified amount of time, followed by addition of a reaction-stopping solution. The concentration of the parent compound at each reaction time was measured using LC/MS/MS, and inherent clearance (μL/10^6 cells/min) was calculated from the slope of the reaction time versus residual rate.
• Cell concentration: 1×10^6 cells/mL • Compound concentration: 1 μM • Medium: Williams' medium E • Reaction time: 0, 15, 30, 60, 120, and 240 minutes • Reaction-stopping solution: acetonitrile/2-propanol (4/6, v/v)

rat PTH1R = biological target: T2, rat PTH1R (Rattus norvegicus, UniProt P25961); assay: In vitro cAMP signaling activity via the rat PTH1R (LLC-PK46_RATO_PTH1R cells); format: cell-based; conditions: LLC-PK46_RATO_PTH1R cells overexpressing rat PTH1R
T2 construct: expressed in transfected cells
T2 sequence (P25961 27-591): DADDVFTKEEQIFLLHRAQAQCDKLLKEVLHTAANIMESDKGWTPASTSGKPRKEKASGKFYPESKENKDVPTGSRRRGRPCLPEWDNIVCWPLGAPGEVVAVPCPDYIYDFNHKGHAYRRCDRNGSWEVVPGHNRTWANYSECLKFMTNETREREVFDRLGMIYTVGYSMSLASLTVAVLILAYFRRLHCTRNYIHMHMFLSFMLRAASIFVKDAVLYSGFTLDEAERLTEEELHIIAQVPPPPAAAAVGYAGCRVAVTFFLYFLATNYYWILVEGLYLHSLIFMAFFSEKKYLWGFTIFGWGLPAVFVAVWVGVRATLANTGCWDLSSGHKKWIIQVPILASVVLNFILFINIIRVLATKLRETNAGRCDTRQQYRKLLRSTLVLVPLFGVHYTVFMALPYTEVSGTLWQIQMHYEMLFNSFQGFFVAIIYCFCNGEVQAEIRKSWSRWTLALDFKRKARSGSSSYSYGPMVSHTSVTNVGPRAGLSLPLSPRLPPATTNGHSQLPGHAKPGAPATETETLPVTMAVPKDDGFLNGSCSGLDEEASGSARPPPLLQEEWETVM
Source text: Instead of HKRK-B7 cells, LLC-PK46_RATO_PTH1R cells overexpressing rat PTH1R, which were established at Chugai Pharmaceutical, were used to take measurements in a similar manner to Reference Test Example 1.

TPTX rat = assay: Calcemic action in the TPTX rat model; format: in vivo; conditions: TPTX rats, 30 mg/kg oral; for change of serum Ca concentration from the Pre-value (in words): up to 24 hours after administration
Description: Four-week old female Crl:CD(SD) rats were obtained from Charles River Japan (Atsugi Breeding Center), and were acclimated to standard laboratory conditions of 20-26° C. and 35-75% humidity for one week. The rats were given tap water and were fed ad libitum with standard rodent chow (CE-2) (CLEA Japan, Inc.) containing 1.1% calcium, 1.0% phosphoric acid, and 250 IU/100 g of vitamin D3.
TPTX was performed on five-week old rats. Some of the individuals were subjected to sham operation (Sham). Individuals whose serum Ca concentration was less than 8 mg/dL on four days after the operation were selected for use as TPTX rats. On five days after the operation, the rats were assigned to eight TPTX groups and one Sham group (n=5, each group) based on their body weight and serum Ca concentration measured on four days after the operation. The solvent alone was orally administered to the Sham group and the TPTX-Vehicle group at a volume of 10 mL/kg. Each test article was orally administered individually to each TPTX test article group by dissolving it in a solvent at a dose of 30 mg/10 mL/kg. The solvent composition was 10% dimethylsulfoxide (Wako Pure Chemical Industries, Ltd.), 10% Cremophor EL (Sigma-Aldrich Japan LLC), 20% hydroxypropyl-β-cyclodextrin (Nihon Shokuhin Kako Co., Ltd.), glycine (Wako Pure Chemical Industries, Ltd.); and the pH was adjusted to 10. Immediately before administration of each sample, Pre-blood collection was performed, and blood collection was carried out at 2, 6, 10, and 24 hours after administration to measure the serum Ca concentration. Each blood collection was carried out from the jugular vein under isoflurane inhalation anesthesia.
Serum Ca measurement: Serum obtained by centrifugation from the collected blood was measured by using an automatic analyzer TBA-120FR (Toshiba Medical Systems Corporation).
For statistical analysis of the animal studies, data are shown as mean±standard error (SE). Statistical analysis were performed by unpaired test of the SAS Preclinical Package (Ver. 5.00.010720, SAS Institute Japan, Tokyo, Japan).

EC20 (human PTH1R)	rat hepatocyte metabolic stability compared to Comparative Examples 1, 2, 3, 5, and 6 (in words) (rat hepatocyte)	EC20 (rat PTH1R)	Compound	radioactivity (proteoglycan synthesis, cpm/μg DNA) relative to the vehicle control [1]	achievement of the therapeutic target range of serum Ca concentration of 7.6 to 8.8 mg/dL (TPTX rat)	change of serum Ca concentration from the Pre-value (in words) (TPTX rat)
1500 nM	increased	800 nM	Cc1cc(N2C(=O)NC(=O)C23CC3)cc(C)c1CCS(=O)(=O)N1CCC2(CC1)N=C(c1ccc(OC(F)(F)F)cc1)NC2=O [Compound 11, 4-(3,5-dimethyl-4-(2-((4-oxo-2-(4-(trifluoromethoxy)phenyl)-1,3,8-triazaspiro[4.5]deca-1-en-8-yl)sulfonyl)ethyl)phenyl)-4,6-diazaspiro[2.4]heptane-5,7-dione]			
	increased	400 nM	Cc1cc(N2C(=O)NC(=O)C23CCCC3)cc(C)c1CCS(=O)(=O)N1CCC2(CC1)N=C(c1ccc(OC(F)(F)F)cc1)NC2=O [Compound 8, 1-(3,5-dimethyl-4-(2-((4-oxo-2-(4-(trifluoromethoxy)phenyl)-1,3,8-triazaspiro[4.5]deca-1-en-8-yl)sulfonyl)ethyl)phenyl)-1,3-diazaspiro[4.4]nonane-2,4-dione]		achieved the therapeutic target range	large positive changes from the Pre-value

The remaining lines, values behind:

Compound	EC20 (human PTH1R)	rat hepatocyte metabolic stability compared to Comparative Examples 1, 2, 3, 5, and 6 (in words) (rat hepatocyte)	EC20 (rat PTH1R)	radioactivity (proteoglycan synthesis, cpm/μg DNA) relative to the vehicle control [1]	achievement of the therapeutic target range of serum Ca concentration of 7.6 to 8.8 mg/dL (TPTX rat)	change of serum Ca concentration from the Pre-value (in words) (TPTX rat)
TGF-β1: Positive control for proteoglycan synthesis, 10 ng/mL [reference compound]				10 fold		
Cc1cc(N2C(=O)CNC2=O)ccc1CCS(=O)(=O)N1CCC2(CC1)N=C(c1cccc(OC(F)(F)F)c1)NC2=O [Comparative Example 1, reference compound]	1500 nM		800 nM		could not be achieved	smaller positive changes from the Pre-value
Cc1cc(N2C(=O)NC(=O)C23COC3)cc(C)c1CCS(=O)(=O)N1CCC2(CC1)N=C(c1ccc(OC(F)(F)F)cc1)NC2=O [Compound 10, 5-(3,5-dimethyl-4-(2-((4-oxo-2-(4-(trifluoromethoxy)phenyl)-1,3,8-triazaspiro[4.5]deca-1-en-8-yl)sulfonyl)ethyl)phenyl)-2-oxa-5,7-diazaspiro[3.4]octane-6,8-dione]	5000 nM	increased	3000 nM			
